Reference: patent publication US20260200920A1, “SUBSTITUTED AMINOPYRIDINE COMPOUNDS FOR USE AS AKT1 INHIBITORS” (Atavistik Bio, Inc., priority 2023, published 2026)

Legend:
[1] = molecular target: T1, human recombinant kinase full-length AKT1 E17K (Homo sapiens, UniProt P31749, E17K); assay: AKT1 E17K kinase assay (TR-FRET, Lance); format: biochemical; settings: 0.6 nM AKT1 E17K, 50 nM Ulight-CREBtide, either 50 μM ATP or 2 mM ATP, 60 min at RT
T1 construct: Purified human recombinant kinase full-length AKT1 E17K was expressed in insect cells; made in house; host or cells: insect cells
Method in brief: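 IC50 came from a 10-point, 4-parameter fit of the 665/620 TR-FRET ratio read with Eu-anti-phospho-CREB (Ser133). Reaction at RT for 60 min after 15 min compound preincubation, using 0.6 nM PDPK1-activated full-length AKT1 E17K (insect-cell), 50 nM Ulight-CREBtide, ATP at 50 μM or 2 mM, HEPES pH 7.5, 1% DMSO.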

[2] = molecular target: T2, human recombinant kinase full-length wildtype AKT1 (Homo sapiens, UniProt P31749); assay: AKT1 kinase assay (wildtype, TR-FRET, Lance); format: biochemical; settings: 0.6 nM wildtype AKT1, 50 nM Ulight-CREBtide, either 50 μM ATP or 2 mM ATP, 60 min at RT
T2 construct: Purified human recombinant kinase full-length wildtype AKT1 was expressed in insect cells; made in house; host or cells: insect cells
Method in brief: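 TR-FRET 665/620 ratio quantified phospho-CREBtide formed by PDPK1-activated full-length human AKT1 (0.6 nM, insect-cell-derived) over 60 min at RT with 50 nM ULight-CREBtide and either 50 μM or 2 mM ATP. Compounds were preincubated 15 min with enzyme; IC50 came from 4-parameter fits of 10-point duplicates.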

T1 sequence (P31749 whole entry E17K): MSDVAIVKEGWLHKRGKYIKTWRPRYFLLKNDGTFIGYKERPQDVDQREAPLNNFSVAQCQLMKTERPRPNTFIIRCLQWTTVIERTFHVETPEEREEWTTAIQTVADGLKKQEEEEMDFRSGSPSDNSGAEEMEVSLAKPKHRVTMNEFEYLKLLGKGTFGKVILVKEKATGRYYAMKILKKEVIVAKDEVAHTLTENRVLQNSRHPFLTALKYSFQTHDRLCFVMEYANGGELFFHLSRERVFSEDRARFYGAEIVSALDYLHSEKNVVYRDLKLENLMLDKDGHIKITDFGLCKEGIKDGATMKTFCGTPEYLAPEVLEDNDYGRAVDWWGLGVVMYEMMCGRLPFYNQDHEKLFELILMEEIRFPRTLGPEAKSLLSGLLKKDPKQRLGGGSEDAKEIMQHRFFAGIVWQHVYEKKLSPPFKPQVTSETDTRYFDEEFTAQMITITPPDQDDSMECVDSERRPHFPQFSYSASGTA
T2 sequence (P31749 whole entry): as the sequence (P31749 whole entry E17K) above, with K17E counted along it

Structure (SMILES)	IC50 [1] [µM]	IC50 [2] [µM]
CC1(C)C[C@H](CN2CC(c3ccc(-n4c(-c5cccnc5N)nc5ccc(-c6ccccc6)nc54)cc3)C2)CC[C@H]1C(=O)O [Compound I-71, (1R,4R)-4-((3-(4-(2-(2-aminopyridin-3-yl)-5-phenyl-3H-imidazo[4,5-b]pyridin-3-yl)phenyl)azetidin-1-yl)methyl)-2,2-dimethylcyclohexane-1-carboxylic acid]	< 0.5	< 20
Nc1ncccc1-c1nc2ccc(-n3cccn3)cc2n1-c1ccc(C2CN(C[C@H]3CC[C@H](C(=O)O)CC3)C2)cc1 [Compound I-72, (1r,4r)-4-((3-(4-(2-(2-aminopyridin-3-yl)-6-(1H-pyrazol-1-yl)-1H-benzo[d]imidazol-1-yl)phenyl)azetidin-1-yl)methyl)cyclohexane-1-carboxylic acid]	≥ 2	< 20
Nc1ncccc1-c1nc2cc(-c3cccnc3)cnc2n1-c1ccc(C2CN(C[C@H]3CC[C@H](C(=O)O)CC3)C2)cc1 [Compound I-73, (1r,4r)-4-((3-(4-(2-(2-aminopyridin-3-yl)-6-(pyridin-3-yl)-3H-imidazo[4,5-b]pyridin-3-yl)phenyl)azetidin-1-yl)methyl)cyclohexane-1-carboxylic acid]	≥ 2	< 20
CC(C)[C@@H]([C@H]1CC[C@H](C(=O)O)CC1)N1CC(c2ccc(-n3c(-c4cccnc4N)nc4ccc(-c5ccccc5)nc43)cc2)C1 [Compound I-74, (1S,4r)-4-((S)-1-(3-(4-(2-(2-aminopyridin-3-yl)-5-phenyl-3H-imidazo[4,5-b]pyridin-3-yl)phenyl)azetidin-1-yl)-2-methylpropyl)cyclohexane-1-carboxylic acid]	≥ 2	< 20
C[C@]1(C(=O)O)CC[C@@H](CN2CC(c3ccc(-n4c(-c5cccnc5N)nc5ccc(-c6ccccc6)nc54)cc3)C2)CC1 [Compound I-75, (1s,4s)-4-((3-(4-(2-(2-aminopyridin-3-yl)-5-phenyl-311-imidazo[4,5-b]pyridin-3-yl)phenyl)azetidin-1-yl)methyl)-1-methylcyclohexane-1-carboxylic acid]	< 0.5	< 20
Nc1ncccc1-c1nc2ccc(-c3ccccc3)nc2n1-c1ccc(C2CCN(CC3CCC(C(=O)O)CC3)CC2)cc1 (stereo not drawn) [Compound I-76, 4-((4-(4-(2-(2-aminopyridin-3-yl)-5-phenyl-3H-imidazo[4,5-b]pyridin-3-yl)phenyl)piperidin-1-yl)methyl)cyclohexane-1-carboxylic acid]	0.5 to 2	< 20
Nc1ncccc1-c1nc2ccc(-c3ccccc3)nc2n1-c1ccc(C2CCCN(CC3CCC(C(=O)O)CC3)C2)cc1 (stereo not drawn) [Compound I-77, 4-((3-(4-(2-(2-aminopyridin-3-yl)-5-phenyl-3H-imidazo[4,5-b]pyridin-3-yl)phenyl)piperidin-1-yl)methyl)cyclohexane-1-carboxylic acid]	≥ 2	< 20
Nc1ncccc1-c1nc2ccc(-c3ccccc3)nc2n1-c1ccc(C2CCN(CC3CCC(C(=O)O)CC3)C2)cc1 (stereo not drawn) [Compound I-78, 4-((3-(4-(2-(2-aminopyridin-3-yl)-5-phenyl-3H-imidazo[4,5-b]pyridin-3-yl)phenyl)pyrrolidin-1-yl)methyl)cyclohexane-1-carboxylic acid]	0.5 to 2	< 20
CC(NC1CCC(C(=O)O)C1)c1ccc(-n2c(-c3cccnc3N)nc3ccc(-c4ccccc4)nc32)cc1F (stereo not drawn) [Compound I-81, 3-((1-(4-(2-(2-aminopyridin-3-yl)-5-phenyl-3H-imidazo[4,5-b]pyridin-3-yl)-2-fluorophenyl)ethyl)amino)cyclopentane-1-carboxylic acid]	≥ 2	< 20
CC1(C(=O)O)CCN(Cc2ccc(-n3c(-c4cccnc4N)nc4ccc(-c5ccccc5)nc43)cc2)CC1 [Compound I-86, 1-[[4-[2-(2-amino-3-pyridyl)-5-phenyl-imidazo[4,5-b]pyridin-3-yl]phenyl]methyl]-4-methyl-piperidine-4-carboxylic acid]	0.5 to 2	< 20
CC(C)(N[C@@H]1CC[C@@H](C(=O)O)C1)c1ccc(-n2c(-c3cccnc3N)nc3ccc(-c4ccccc4)nc32)cc1 [Compound I-87, (1R,3R)-3-((2-(4-(2-(2-aminopyridin-3-yl)-5-phenyl-3H-imidazo[4,5-b]pyridin-3-yl)phenyl)propan-2-yl)amino)cyclopentane-1-carboxylic acid]	≥ 2	< 20
CC(C)(NC1CCC(C(=O)O)CC1)c1ccc(-n2c(-c3cccnc3N)nc3ccc(-c4ccccc4)nc32)cc1 (stereo not drawn) [Compound I-89, (1r,4r)-4-((2-(4-(2-(2-aminopyridin-3-yl)-5-phenyl-3H-imidazo[4,5-b]pyridin-3-yl)phenyl)propan-2-yl)amino)cyclohexane-1-carboxylic acid]	≥ 2	< 20
CC(C)(C(=O)O)C1CCN(Cc2ccc(-n3c(-c4cccnc4N)nc4ccc(-c5ccccc5)nc43)cc2)CC1 [Compound I-92, 2-(1-(4-(2-(2-aminopyridin-3-yl)-5-phenyl-3H-imidazo[4,5-b]pyridin-3-yl)benzyl)piperidin-4-yl)-2-methylpropanoic acid]	≥ 2	< 20
Nc1ncccc1-c1nc2ccc(-c3ccccc3)nc2n1-c1ccc(CN2CCC(CC(=O)O)C2)cc1 (stereo not drawn) [Compound I-94, 2-(1-(4-(2-(2-aminopyridin-3-yl)-5-phenyl-3H-imidazo[4,5-b]pyridin-3-yl)benzyl)pyrrolidin-3-yl)acetic acid]	< 0.5	< 20

The next lines start with the values.

IC50 [1] [µM]	IC50 [2] [µM]	Structure (SMILES)
≥ 2	< 20	CC(c1ccc(-n2c(-c3cccnc3N)nc3ccc(-c4ccccc4)nc32)cc1)N1CCC(C(=O)O)CC1 (stereo not drawn) [Compound I-79, 1-(1-(4-(2-(2-aminopyridin-3-yl)-5-phenyl-3H-imidazo[4,5-b]pyridin-3-yl)phenyl)ethyl)piperidine-4-carboxylic acid]
≥ 2	< 20	Nc1ncccc1-c1nc2ccc(-c3ccccc3)nc2n1-c1ccc(C(=O)N2CC3(CC(C(=O)O)C3)C2)cc1 [Compound I-80, 2-(4-(2-(2-aminopyridin-3-yl)-5-phenyl-3H-imidazo[4,5-b]pyridin-3-yl)benzoyl)-2-azaspiro[3.3]heptane-6-carboxylic acid]
≥ 2	< 20	CC(C)(C(=O)O)C1CCN(C(=O)c2ccc(-n3c(-c4cccnc4N)nc4ccc(-c5ccccc5)nc43)cc2)C1 (stereo not drawn) [Compound I-82, 2-(1-(4-(2-(2-aminopyridin-3-yl)-5-phenyl-3H-imidazo[4,5-b]pyridin-3-yl)benzoyl)pyrrolidin-3-yl)-2-methylpropanoic acid]
≥ 2	< 20	CC(c1ccc(-n2c(-c3cccnc3N)nc3ccc(-c4ccccc4)nc32)cc1)N1CCCC(C(=O)O)C1 (stereo not drawn) [Compound I-83, 1-(1-(4-(2-(2-aminopyridin-3-yl)-5-phenyl-3H-imidazo[4,5-b]pyridin-3-yl)phenyl)ethyl)piperidine-3-carboxylic acid]
≥ 2	< 20	CC(c1ccc(-n2c(-c3cccnc3N)nc3ccc(-c4ccccc4)nc32)cc1)N1CCC(C(=O)O)C1 (stereo not drawn) [Compound I-84, 1-(1-(4-(2-(2-aminopyridin-3-yl)-5-phenyl-3H-imidazo[4,5-b]pyridin-3-yl)phenyl)ethyl)pyrrolidine-3-carboxylic acid]
≥ 2	< 20	CC1(C)CN(Cc2ccc(-n3c(-c4cccnc4N)nc4ccc(-c5ccccc5)nc43)cc2)CCC1C(=O)O (stereo not drawn) [Compound I-85, 1-[[4-[2-(2-amino-3-pyridyl)-5-phenyl-imidazo[4,5-b]pyridin-3-yl]phenyl]methyl]-3,3-dimethyl-piperidine-4-carboxylic acid]
≥ 2	< 20	CC(C)(N[C@@H]1CC[C@H](C(=O)O)C1)c1ccc(-n2c(-c3cccnc3N)nc3ccc(-c4ccccc4)nc32)cc1 [Compound I-88, (1S,3R)-3-((2-(4-(2-(2-aminopyridin-3-yl)-5-phenyl-3H-imidazo[4,5-b]pyridin-3-yl)phenyl)propan-2-yl)amino)cyclopentane-1-carboxylic acid]
< 0.5	< 20	Nc1ncccc1-c1nc2ccc(-c3ccccc3)nc2n1-c1ccc(CN[C@H]2CC[C@H](C(=O)O)CC2)cc1 [Compound I-90, (1r,4r)-4-((4-(2-(2-aminopyridin-3-yl)-5-phenyl-3H-imidazo[4,5-b]pyridin-3-yl)benzyl)amino)cyclohexane-1-carboxylic acid]
< 0.5	< 20	Nc1ncccc1-c1nc2ccc(-c3ccccc3)nc2n1-c1ccc(CN[C@H]2CC[C@@H](C(=O)O)CC2)cc1 [Compound I-91, (1s,4s)-4-((4-(2-(2-aminopyridin-3-yl)-5-phenyl-3H-imidazo[4,5-b]pyridin-3-yl)benzyl)amino)cyclohexane-1-carboxylic acid]
0.5 to 2	< 20	Nc1ncccc1-c1nc2ccc(-c3ccccc3)nc2n1-c1ccc(CN2CC3(CC(C(=O)O)C3)C2)cc1 [Compound I-93, 2-(4-(2-(2-aminopyridin-3-yl)-5-phenyl-3H-imidazo[4,5-b]pyridin-3-yl)benzyl)-2-azaspiro[3.3]heptane-6-carboxylic acid]
